Experiments:
CYP2C19 = CYP2C19 (Homo sapiens, UniProt P33261); conditions: human liver microsomes
CYP2C8 = biological target: T1, CYP2C8 (Homo sapiens, UniProt P10632); conditions: human liver microsomes
T1 sequence (P10632 1-490): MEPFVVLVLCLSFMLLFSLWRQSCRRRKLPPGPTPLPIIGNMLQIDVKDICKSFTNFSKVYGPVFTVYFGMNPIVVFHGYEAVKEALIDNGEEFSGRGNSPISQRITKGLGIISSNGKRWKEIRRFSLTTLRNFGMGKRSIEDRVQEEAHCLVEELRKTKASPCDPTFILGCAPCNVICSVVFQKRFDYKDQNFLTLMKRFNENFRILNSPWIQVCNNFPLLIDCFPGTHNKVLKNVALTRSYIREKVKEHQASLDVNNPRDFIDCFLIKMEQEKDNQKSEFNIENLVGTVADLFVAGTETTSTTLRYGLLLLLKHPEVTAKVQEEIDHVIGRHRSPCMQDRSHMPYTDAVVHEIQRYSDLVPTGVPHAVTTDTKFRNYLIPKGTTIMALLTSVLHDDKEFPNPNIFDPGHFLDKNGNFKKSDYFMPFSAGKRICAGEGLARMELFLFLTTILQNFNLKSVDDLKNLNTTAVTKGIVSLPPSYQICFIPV
Description: For in vitro experiments, a stock solution of C#1 in DMSO was chosen.

CYP2C19, sequence (P33261 whole entry): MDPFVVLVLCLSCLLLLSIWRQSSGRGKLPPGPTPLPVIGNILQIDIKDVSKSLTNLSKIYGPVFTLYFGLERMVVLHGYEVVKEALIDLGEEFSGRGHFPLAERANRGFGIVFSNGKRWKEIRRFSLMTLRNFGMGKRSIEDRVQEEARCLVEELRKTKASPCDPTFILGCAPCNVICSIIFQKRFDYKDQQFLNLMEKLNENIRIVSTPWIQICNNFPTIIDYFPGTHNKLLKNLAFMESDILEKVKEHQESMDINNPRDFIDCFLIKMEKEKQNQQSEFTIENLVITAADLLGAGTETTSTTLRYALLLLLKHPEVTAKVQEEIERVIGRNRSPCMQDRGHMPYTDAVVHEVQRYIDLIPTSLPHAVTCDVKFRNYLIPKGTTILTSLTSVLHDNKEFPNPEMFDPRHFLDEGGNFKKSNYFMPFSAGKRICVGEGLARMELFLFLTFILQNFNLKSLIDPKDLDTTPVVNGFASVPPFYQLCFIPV

Row | SMILES | CYP2C19 Imax of reference inhibitor (CYP2C19) [%] | CYP2C8 Imax of reference inhibitor (CYP2C8) [%]
1 | C=C(C)[C@@H]1CCC2=CC(=O)C[C@@H](C)[C@]2(C)C1 [Nootkatone] | 87 | –
2 | O=c1c(O)c(-c2ccc(O)c(O)c2)oc2cc(O)cc(O)c12 [Quercetin] | – | 88

Source: paper PMC11510805, “In Vivo Effects of a GHR Synthesis Inhibitor During Prolonged Treatment in Dogs” (Pharmaceuticals, 2024)
